The values below are quoted from earlier work in patent publication US20180360817A1, “EXTENDED RELEASE OSMOTIC DOSAGE FORM COMPRISING HIGH METHYLPHENIDATE HYDROCHLORIDE LOAD” (CADILA HEALTHCARE LIMITED, priority 2015, published 2018).

Like-named read-outs stand apart in the source and are kept apart here.

Consider `COC(=O)C(c1ccccc1)C1CCCCN1.Cl` (racemic) [Methylphenidate hydrochloride, d,l (racemic) methyl α-phenyl-2-piperidineacetate hydrochloride], for which the Solubility result runs as follows: (in acetone) “slightly soluble”; (in alcohol) “soluble”; (in chloroform) “slightly soluble”; (in methanol) “freely soluble”; (in water) “freely soluble”.
